From the supplement of paper PMC10307832

Tests used:
Test in all cases: relative viability (nuclei count vs DMSO), 5 days (fraction); higher = more cells survive
NCI-H2087 = system: NCI-H2087
Procedure, shortened: (§1)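 Values are medians from duplicate plates. Each reflects relative viability, defined as the nuclei count of treated wells over that of vehicle wells. Lung cancer cell lines in 1536-well plates were pin-tool dosed one day after seeding with one drug alone or with a fixed anchor-drug dose plus five library-drug doses (not always all listed) in √10 steps, then fixed, stained and imaged at 4× after 5 days.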

LXF-289 = system: LXF-289
Procedure, shortened: as §1

NCI-H2085 = system: NCI-H2085
Procedure, shortened: as §1

NCI-H1651 = system: NCI-H1651
Procedure, shortened: as §1

LU99A = system: LU99A
Procedure, shortened: as §1

NCI-H1755 = system: NCI-H1755
Procedure, shortened: as §1

NCI-H1993 = system: NCI-H1993
Procedure, shortened: as §1

NCI-H1355 = system: NCI-H1355
Procedure, shortened: as §1

BEN = system: BEN
Procedure, shortened: as §1

PC-14 = system: PC-14
Procedure, shortened: as §1

NCI-H1437 = system: NCI-H1437
Procedure, shortened: as §1

NCI-H460 = system: NCI-H460
Procedure, shortened: as §1

NCI-H1666 = system: NCI-H1666
Procedure, shortened: as §1

HCC-44 = system: HCC-44
Procedure, shortened: as §1

CAL-12T = system: CAL-12T
Procedure, shortened: as §1

NCI-H2170 = system: NCI-H2170
Procedure, shortened: as §1

NCI-H1792 = system: NCI-H1792
Procedure, shortened: as §1

Cc1csc(=NC2CCCCC2)n1/N=C/c1ccc(O)c(O)c1O [MIM1] + NC(=O)Nc1cc(-c2cccc(F)c2)sc1C(=O)N[C@H]1CCCNC1 [AZD7762] (partner 0.2 µM)
relative viability (NCI-H2087; first compound 0.2 µM): 1.31 | relative viability (NCI-H2087; first compound 0.6325 µM): 1.29 | relative viability (NCI-H2087; first compound 2 µM): 1.45 | relative viability (NCI-H2087; first compound 6.325 µM): 0.87 | relative viability (NCI-H2087; first compound 20 µM): 1.05 | relative viability (LXF-289; first compound 0.2 µM): 1.07 | relative viability (LXF-289; first compound 0.6325 µM): 0.905 | relative viability (LXF-289; first compound 2 µM): 1.12 | relative viability (LXF-289; first compound 6.325 µM): 0.85 | relative viability (LXF-289; first compound 20 µM): 0.378 | relative viability (NCI-H2085; first compound 0.2 µM): 1 | relative viability (NCI-H2085; first compound 0.6325 µM): 0.963 | relative viability (NCI-H2085; first compound 2 µM): 1.07 | relative viability (NCI-H2085; first compound 6.325 µM): 0.766 | relative viability (NCI-H2085; first compound 20 µM): 0.775 | relative viability (NCI-H1651; first compound 0.2 µM): 0.464 | relative viability (NCI-H1651; first compound 0.6325 µM): 0.434 | relative viability (NCI-H1651; first compound 2 µM): 0.425 | relative viability (NCI-H1651; first compound 6.325 µM): 0.429 | relative viability (NCI-H1651; first compound 20 µM): 0.503 | relative viability (LU99A; first compound 0.2 µM): 0.364 | relative viability (LU99A; first compound 0.6325 µM): 0.265 | relative viability (LU99A; first compound 2 µM): 0.258 | relative viability (LU99A; first compound 6.325 µM): 0.218 | relative viability (LU99A; first compound 20 µM): 0.0782 | relative viability (NCI-H1755; first compound 0.2 µM): 0.464 | relative viability (NCI-H1755; first compound 0.6325 µM): 0.436 | relative viability (NCI-H1755; first compound 2 µM): 0.433 | relative viability (NCI-H1755; first compound 6.325 µM): 0.38 | relative viability (NCI-H1755; first compound 20 µM): 0.354 | relative viability (NCI-H1993; first compound 0.2 µM): 0.704 | relative viability (NCI-H1993; first compound 0.6325 µM): 0.761 | relative viability (NCI-H1993; first compound 2 µM): 0.73 | relative viability (NCI-H1993; first compound 6.325 µM): 0.569 | relative viability (NCI-H1993; first compound 20 µM): 0.35 | relative viability (NCI-H1355; first compound 0.2 µM): 0.802 | relative viability (NCI-H1355; first compound 0.6325 µM): 0.69 | relative viability (NCI-H1355; first compound 2 µM): 0.814 | relative viability (NCI-H1355; first compound 6.325 µM): 0.529 | relative viability (NCI-H1355; first compound 20 µM): 0.673 | relative viability (BEN; first compound 0.2 µM): 0.781 | relative viability (BEN; first compound 0.6325 µM): 0.645 | relative viability (BEN; first compound 2 µM): 0.67 | relative viability (BEN; first compound 6.325 µM): 0.707 | relative viability (BEN; first compound 20 µM): 0.336 | relative viability (PC-14; first compound 0.2 µM): 0.353 | relative viability (PC-14; first compound 0.6325 µM): 0.244 | relative viability (PC-14; first compound 2 µM): 0.288 | relative viability (PC-14; first compound 6.325 µM): 0.311 | relative viability (PC-14; first compound 20 µM): 0.111 | relative viability (NCI-H1437; first compound 0.2 µM): 1.02 | relative viability (NCI-H1437; first compound 0.6325 µM): 1.12 | relative viability (NCI-H1437; first compound 2 µM): 1.18 | relative viability (NCI-H1437; first compound 6.325 µM): 0.916 | relative viability (NCI-H1437; first compound 20 µM): 0.666 | relative viability (NCI-H460; first compound 0.2 µM): 0.538 | relative viability (NCI-H460; first compound 0.6325 µM): 0.629 | relative viability (NCI-H460; first compound 2 µM): 0.526 | relative viability (NCI-H460; first compound 6.325 µM): 0.251 | relative viability (NCI-H460; first compound 20 µM): 0.0582 | relative viability (NCI-H1666; first compound 0.2 µM): 0.862 | relative viability (NCI-H1666; first compound 0.6325 µM): 0.789 | relative viability (NCI-H1666; first compound 2 µM): 0.829 | relative viability (NCI-H1666; first compound 6.325 µM): 0.7 | relative viability (NCI-H1666; first compound 20 µM): 0.519 | relative viability (HCC-44; first compound 0.2 µM): 0.985 | relative viability (HCC-44; first compound 0.6325 µM): 0.985 | relative viability (HCC-44; first compound 2 µM): 0.961 | relative viability (HCC-44; first compound 6.325 µM): 0.947 | relative viability (HCC-44; first compound 20 µM): 0.521 | relative viability (CAL-12T; first compound 0.2 µM): 0.527 | relative viability (CAL-12T; first compound 0.6325 µM): 0.575 | relative viability (CAL-12T; first compound 2 µM): 0.605 | relative viability (CAL-12T; first compound 6.325 µM): 0.436 | relative viability (CAL-12T; first compound 20 µM): 0.332 | relative viability (NCI-H2170; first compound 0.2 µM): 0.857 | relative viability (NCI-H2170; first compound 0.6325 µM): 0.826 | relative viability (NCI-H2170; first compound 2 µM): 0.759 | relative viability (NCI-H2170; first compound 6.325 µM): 0.368 | relative viability (NCI-H2170; first compound 20 µM): 0.158 | relative viability (NCI-H1792; first compound 0.2 µM): 0.657 | relative viability (NCI-H1792; first compound 0.6325 µM): 0.565 | relative viability (NCI-H1792; first compound 2 µM): 0.733 | relative viability (NCI-H1792; first compound 6.325 µM): 0.559 | relative viability (NCI-H1792; first compound 20 µM): 0.858
